Where two headings read alike, the source gives them in different places.
Experiments:
HIV (LAV 1) = assay: microbe, parasite or virus in culture; settings: for Viral antigen-positive cell percentage / Viable cell count: 10 mcg/ml; for viability at 1 µg/mL / viability at 2.5 µg/mL / viability at 5 µg/mL / viability at 10 µg/mL: Human immunodeficiency virus 1, CCRF-CEM
How it was run: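 CEM cells were infected with HIV LAV 1 at MOI 0.05 and cultured with test substance at 10, 5, 2.5 or 1 mcg/ml, with medium exchanged periodically up to 30 days. Viable cell count and percentage were measured by trypan blue, and antigen-positive cells by immunofluorescence with anti-HIV antiserum, at 4–30 days. Values are means of two wells.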

in vivo = settings: mouse, iv
[1] = continuous addition, after 4 days
[2] = continuous addition, after 7 days
[3] = continuous addition, after 10 days
[4] = continuous addition, after 20 days
[5] = continuous addition, after 30 days

With C[C@H]1COc2c(N3CCN(C)CC3)c(F)cc3c(=O)c(C(=O)O)cn1c23 [DR-3355, (-)-(S)-9-fluoro-2,3-dihydro-3-methyl-10-(4-methyl-1-piperazinyl)-7-oxo-7H-pyrido[1,2,3-de][1,4]benzoxazine-6-carboxylic acid hemihydrate] the “Viral antigen-positive cell percentage” value (HIV (LAV 1); 4-day addition, after 4 days) was 88%, the Viable cell count (HIV (LAV 1); 4-day addition, after 7 days) was 50 × 10⁴ cells/ml and the “Viral antigen-positive cell percentage” value (HIV (LAV 1); 4-day addition, after 7 days) was 57%. For the same molecule, the Viable cell count (HIV (LAV 1); 4-day addition, after 10 days) was 280 × 10⁴ cells/ml, the “Viral antigen-positive cell percentage” value (HIV (LAV 1); 4-day addition, after 10 days) was 31% and the Viable cell count (HIV (LAV 1); 4-day addition, after 20 days) was 230 × 10⁴ cells/ml. For the same molecule, the “Viral antigen-positive cell percentage” value (HIV (LAV 1); 4-day addition, after 20 days) was 19%, the Viable cell count (HIV (LAV 1); 4-day addition, after 30 days) was 320 × 10⁴ cells/ml and the “Viral antigen-positive cell percentage” value (HIV (LAV 1); 4-day addition, after 30 days) was “≦1%”. The Viable cell count (HIV (LAV 1); [1]) was 160 × 10⁴ cells/ml, the “Viral antigen-positive cell percentage” value (HIV (LAV 1); [1]) was 89% and the Viable cell count (HIV (LAV 1); [2]) was 43 × 10⁴ cells/ml. The “Viral antigen-positive cell percentage” value (HIV (LAV 1); [2]) was 55%, the Viable cell count (HIV (LAV 1); [3]) was 220 × 10⁴ cells/ml and the “Viral antigen-positive cell percentage” value (HIV (LAV 1); [3]) was 31%. For the same molecule, the Viable cell count (HIV (LAV 1); [4]) was 260 × 10⁴ cells/ml, the “Viral antigen-positive cell percentage” value (HIV (LAV 1); [4]) was 21% and the Viable cell count (HIV (LAV 1); [5]) was 260 × 10⁴ cells/ml. The “Viral antigen-positive cell percentage” value (HIV (LAV 1); [5]) was 4%, the viability at 1 µg/mL (HIV (LAV 1); 96 h, read-out: Viable cell percentage, 1 mcg/ml, 4-day addition, after 4 days) was 95% and the viability at 1 µg/mL (HIV (LAV 1); 96 h, read-out: Viable cell percentage, 1 mcg/ml, continuous addition, after 4 days) was 94%. For the same molecule, the viability at 2.5 µg/mL (HIV (LAV 1); 96 h, read-out: Viable cell percentage, 2.5 mcg/ml, 4-day addition, after 4 days) was 94%, the viability at 2.5 µg/mL (HIV (LAV 1); 96 h, read-out: Viable cell percentage, 2.5 mcg/ml, continuous addition, after 4 days) was 94% and the viability at 5 µg/mL (HIV (LAV 1); 96 h, read-out: Viable cell percentage, 5 mcg/ml, 4-day addition, after 4 days) was 91%. For the same molecule, the viability at 5 µg/mL (HIV (LAV 1); 96 h, read-out: Viable cell percentage, 5 mcg/ml, continuous addition, after 4 days) was 89%, the viability at 10 µg/mL (HIV (LAV 1); 96 h, read-out: Viable cell percentage, 10 mcg/ml, 4-day addition, after 4 days) was 92% and the viability at 10 µg/mL (HIV (LAV 1); 96 h, read-out: Viable cell percentage, 10 mcg/ml, continuous addition, after 4 days) was 91%. For the same molecule, the viability at 1 µg/mL (HIV (LAV 1); 168 h, read-out: Viable cell percentage, 1 mcg/ml, continuous addition, after 7 days) was 69%, the viability at 2.5 µg/mL (HIV (LAV 1); 168 h, read-out: Viable cell percentage, 2.5 mcg/ml, continuous addition, after 7 days) was 68% and the viability at 5 µg/mL (HIV (LAV 1); 168 h, read-out: Viable cell percentage, 5 mcg/ml, continuous addition, after 7 days) was 66%. The viability at 10 µg/mL (HIV (LAV 1); 168 h, read-out: Viable cell percentage, 10 mcg/ml, continuous addition, after 7 days) was 75%, the viability at 1 µg/mL (HIV (LAV 1); 240 h, read-out: Viable cell percentage, 1 mcg/ml, continuous addition, after 10 days) was 61% and the viability at 2.5 µg/mL (HIV (LAV 1); 240 h, read-out: Viable cell percentage, 2.5 mcg/ml, continuous addition, after 10 days) was 94%. It also gave a viability at 5 µg/mL (HIV (LAV 1); 240 h, read-out: Viable cell percentage, 5 mcg/ml, continuous addition, after 10 days) of 95%, a viability at 10 µg/mL (HIV (LAV 1); 240 h, read-out: Viable cell percentage, 10 mcg/ml, continuous addition, after 10 days) of 92% and a viability at 1 µg/mL (HIV (LAV 1); 480 h, read-out: Viable cell percentage, 1 mcg/ml, continuous addition, after 20 days) of 50%. The viability at 2.5 µg/mL (HIV (LAV 1); 480 h, read-out: Viable cell percentage, 2.5 mcg/ml, continuous addition, after 20 days) was 95%, the viability at 5 µg/mL (HIV (LAV 1); 480 h, read-out: Viable cell percentage, 5 mcg/ml, continuous addition, after 20 days) was 89% and the viability at 10 µg/mL (HIV (LAV 1); 480 h, read-out: Viable cell percentage, 10 mcg/ml, continuous addition, after 20 days) was 87%. It also gave a viability at 1 µg/mL (HIV (LAV 1); read-out: Viable cell percentage, 1 mcg/ml, 4-day addition, after 7 days) of 70%, a viability at 1 µg/mL (HIV (LAV 1); read-out: Viable cell percentage, 1 mcg/ml, 4-day addition, after 10 days) of 61% and a viability at 1 µg/mL (HIV (LAV 1); read-out: Viable cell percentage, 1 mcg/ml, 4-day addition, after 20 days) of 20%. For the same molecule, the viability at 1 µg/mL (HIV (LAV 1); read-out: Viable cell percentage, 1 mcg/ml, 4-day addition, after 30 days) was 98%, the viability at 1 µg/mL (HIV (LAV 1); read-out: Viable cell percentage, 1 mcg/ml, continuous addition, after 30 days) was 98% and the viability at 2.5 µg/mL (HIV (LAV 1); read-out: Viable cell percentage, 2.5 mcg/ml, 4-day addition, after 7 days) was 80%. For the same molecule, the viability at 2.5 µg/mL (HIV (LAV 1); read-out: Viable cell percentage, 2.5 mcg/ml, 4-day addition, after 10 days) was 92%, the viability at 2.5 µg/mL (HIV (LAV 1); read-out: Viable cell percentage, 2.5 mcg/ml, 4-day addition, after 20 days) was 87% and the viability at 2.5 µg/mL (HIV (LAV 1); read-out: Viable cell percentage, 2.5 mcg/ml, 4-day addition, after 30 days) was 83%. The viability at 2.5 µg/mL (HIV (LAV 1); read-out: Viable cell percentage, 2.5 mcg/ml, continuous addition, after 30 days) was 88%, the viability at 5 µg/mL (HIV (LAV 1); read-out: Viable cell percentage, 5 mcg/ml, 4-day addition, after 7 days) was 76% and the viability at 5 µg/mL (HIV (LAV 1); read-out: Viable cell percentage, 5 mcg/ml, 4-day addition, after 10 days) was 95%. It also gave a viability at 5 µg/mL (HIV (LAV 1); read-out: Viable cell percentage, 5 mcg/ml, 4-day addition, after 20 days) of 87%, a viability at 5 µg/mL (HIV (LAV 1); read-out: Viable cell percentage, 5 mcg/ml, 4-day addition, after 30 days) of 92% and a viability at 5 µg/mL (HIV (LAV 1); read-out: Viable cell percentage, 5 mcg/ml, continuous addition, after 30 days) of 75%. It also gave a viability at 10 µg/mL (HIV (LAV 1); read-out: Viable cell percentage, 10 mcg/ml, 4-day addition, after 7 days) of 68%, a viability at 10 µg/mL (HIV (LAV 1); read-out: Viable cell percentage, 10 mcg/ml, 4-day addition, after 10 days) of 94% and a viability at 10 µg/mL (HIV (LAV 1); read-out: Viable cell percentage, 10 mcg/ml, 4-day addition, after 20 days) of 85%. The viability at 10 µg/mL (HIV (LAV 1); read-out: Viable cell percentage, 10 mcg/ml, 4-day addition, after 30 days) was 92%, the viability at 10 µg/mL (HIV (LAV 1); read-out: Viable cell percentage, 10 mcg/ml, continuous addition, after 30 days) was 83% and the LD50 (in vivo) was ≥ 200 mg/kg.
